From patent US9180160B2, “Complement inhibitors for treatment of injury from intracerebral hemorrhage” (The Trustees of the University of Pennsylvania, priority 2008, dated 2015)
Entries after “also recorded” stand apart in the source; their conditions may differ.

Key:
Assay type in all cases: in vivo
[1] = system: C57BL/6J mice subjected to ICH; test: 28-point neurological function score after ICH (autologous blood infusion)
Experimental: (§1) Animal Preparation and Intracerebral Infusion. Adult male C57BL/6J mice weighing 23-30 g were used. Mice were randomized to receive intraperitoneal injection of either C3aRA (1 mg/kg) (SB290157, Calbiochem, Darmstadt, Germany) diluted in PBS and DMSO (1.16% v/v), or an equal volume of vehicle (PBS and DMSO, 1.16% DMSO v/v) either 45 minutes prior to ICH induction or 6 and 12 hours after induction of ICH, followed in both cohorts by twice daily doses for 72 hours. […] Sham animals were given PBS and DMSO (1.16% v/v) in the same manner.
Mice were anesthetized with a single intraperitoneal dose of ketamine (90 mg/kg) and xylazine (5 mg/kg). Next, the mice were placed in a stereotactic frame (ASI Instruments, Inc., Warren, Mich., USA) and subjected to ICH using autologous blood infusion as previously described (Rynkowski M A et al, 2008, Nat Protoc 3: 122-128), Briefly, a 1-mm burr hole was drilled 2.3 mm lateral to the midline and 0.2 mm anterior to the bregma. Thirty μL of autologous whole blood were drawn from the tail artery into a capillary tube. A 30-gauge needle was then advanced stereotactically through the burr hole into the right striatum (coordinates: 0.2 mm anterior, 2.3 mm lateral to the bregma, 3.5 mm ventral). Using a microinfusion pump (KDS220, KD Scientific Inc., Holliston, Mass., USA), 5 μL was delivered at a rate of 1.5 μL per minute. After a 7-minute period, an additional 25 μL was delivered at a constant rate of 1.5 μL per minute. […]
(§2) Neurofunction and behavioral testing. Sensorimotor function was evaluated by means of the 28-point neurological function score, corner test and forelimb placing tests, which were performed pre-operatively and at 6, 24, 48 and 72 hour post-injury. Navigational memory was evaluated with the means of a Morris water-maze (MWM) test pre-operatively and at 72 hours post ICH. […]
Neurological function. Acute neurological deficits were assessed using a 28-point scoring system including body symmetry, gait, climbing, circling behavior, front limb symmetry, compulsory circling and whisker response. […]

[2] = system: C57BL/6J mice subjected to ICH; test: Flow cytometric analysis of granulocyte infiltration and microglial activation after ICH; conditions: then twice daily, mean±SEM
Experimental: as §1
Mice were anesthetized with a single intraperitoneal dose of ketamine (90 mg/kg) and xylazine (5 mg/kg). Next, the mice were placed in a stereotactic frame (ASI Instruments, Inc., Warren, Mich., USA) and subjected to ICH using autologous blood infusion as previously described (Rynkowski M A et al, 2008, Nat Protoc 3: 122-128), Briefly, a 1-mm burr hole was drilled 2.3 mm lateral to the midline and 0.2 mm anterior to the bregma. Thirty μL of autologous whole blood were drawn from the tail artery into a capillary tube. A 30-gauge needle was then advanced stereotactically through the burr hole into the right striatum (coordinates: 0.2 mm anterior, 2.3 mm lateral to the bregma, 3.5 mm ventral). Using a microinfusion pump (KDS220, KD Scientific Inc., Holliston, Mass., USA), 5 μL was delivered at a rate of 1.5 μL per minute. After a 7-minute period, an additional 25 μL was delivered at a constant rate of 1.5 μL per minute. After a period of 10 minutes, the needle was slowly removed, the burr hole was occluded with bone wax and the skin incision was closed with Nexaband® (Abbott Laboratories, North Chicago, Ill.). Sham animals received only needle insertion. […]
Preparation of brains. Both cerebral hemispheres were analyzed for inflammatory cells using flow cytometry. […]
Flow cytometric analysis. […] Flow cytometric analysis was carried out using a FACSCalibur (BD Biosciences, Franklin Lakes, N.J., USA), and the data were analyzed using FlowJo software (Tree Star, Ashland, Oreg., USA). […]

[3] = system: C57BL/6J mice subjected to ICH; test: Forelimb placing test after ICH; conditions: 1 mg/kg i.p. 45 minutes prior to ICH, then twice daily; 72 hours after ICH
Experimental: as §1
Mice were anesthetized with a single intraperitoneal dose of ketamine (90 mg/kg) and xylazine (5 mg/kg). […]
as §2
Forelimb placing test. […] Each animal was tested 10 times for each forelimb, and the percentage of trials in which the mouse placed the appropriate forelimb on the edge of the table after vibrissae stimulation was determined.

[4] = 1 mg/kg i.p. first at 6 h and 12 h after ICH, then twice daily for 72 hours, versus vehicle
[5] = 1 mg/kg i.p. 45 minutes prior to ICH, 72 hours after ICH

Molecule | 28-point neurological score ([1]; 1 mg/kg i.p. 45 minutes prior to ICH, then twice daily, 72 hours after ICH) | 28-point neurological score [1, 4] | activated microglia, hemorrhagic/non-hemorrhagic hemisphere ratio [2, 5] | granulocytes, hemorrhagic/non-hemorrhagic hemisphere ratio [2, 5] | forelimb placing capacity in the impaired limb [3] | granulocyte infiltration, hemorrhagic/non-hemorrhagic ratio ([2]; 1 mg/kg i.p. first at 6 h and 12 h after ICH, 3 days after ICH)
NC(N)=NCCC[C@H](NC(=O)COCC(c1ccccc1)c1ccccc1)C(=O)O [C3aRA] | no significant deficits compared with sham animals | significant improvement at 24, 48, and 72 hours; also recorded: significant improvement at 24, 48 and 72 hours | 3.67±0.45 | 3.21±0.52 | no significant deficits compared with sham animals | 
Acetyl-Phe-[Orn-Pro-D-cyclohexylalanine-Trp-Arg] [C5aRA] |  | significant improvement at 24, 48 and 72 hours |  |  |  | 1.7793±0.36
